Experimental data as given in PMC2831066, “The Alzheimer's Disease-Associated Amyloid β-Protein Is an Antimicrobial Peptide” (PLoS ONE, 2010).
≈ marks a conversion by molar mass, not a printed value. Like-named read-outs stand apart in the source and are kept apart here. No end group written: not given here.

Key:
[1] = test system: E. faecalis; test: Growth curves of E. faecalis with peptide, CFU count; assay type: cell-based, Enterococcus faecalis; conditions: 25 µg/ml peptide; growth with time by CFU; six experiments, four replicates (Figure 1A)
Description: (§1) Serial dilutions of incubants were prepared and streaked onto the surface of agar. The agar plates were then incubated overnight at 37°C and colonies forming units counted.

[2] = test system: Pseudomonas aeruginosa; assay type: cell-based
Description: (§2) Bacteria were cultured aerobically in Mueller-Hinton broth (MHB), Brain and Heart Infusion broth (BHIB), or BHIB supplemented with 1% lysed horse blood and plated on Tryptone Soy Agar (TSA) plates containing 5% defibrinated sheep blood. […] Culture conditions for each organism are included in Table S1. Organisms were subcultured for 2 hrs to generate mid-logarithmic growth cultures for use as inoculates in experiments. Media reagents were obtained from Becton, Dickinson and Company (Sparks, MD).
(§3) Colonies from agar were transferred by sterile loop to growth media and incubated for 2 hrs at 37°C to achieve a McFarland density of 0.5. Bacteria inoculum cell densities were normalized to 5×10^5 cells/ml immediately before use photometrically and subsequently confirmed by colony count. Inoculum of C. albicans contained a cell density of 2.5×10^3 CFU/ml.
(§4) Bulk powdered peptides were first dissolved in 30% trifluoroethanol (TFE) at 1 mg/ml. Five hundred microliter aliquots of the stock solutions were lyophilized and stored under nitrogen at −20°C. Stock solutions at 2 mg/ml were prepared the day of experimentation from the peptide films by solubilizing a second time in either water or 20% TFE. Aβ stocks prepared in water were sonicated and insoluble peptide aggregates pelleted by centrifugation (10 min×16,000 g). Peptide concentrations in stock solutions were determined immediately before use by bicinchoninic acid (BCA) protein assay. […] For MIC experiments, peptides were serially diluted into growth media. For other experiments stocks were diluted into required working buffers. Experiments included controls for peptide buffer vehicle alone.
(§5) Peptide antimicrobial activity was determined as minimal inhibitory concentration (MIC). Experiments identified peptide MIC by broth microdilution susceptibility test in conjunction with CFU and alamar blue assays. Inoculum containing mid-logarithmic phase cells was dispensed into the wells of polypropylene 96-well plates (Fisher, Pittsburgh, PA) containing seven two-fold dilutions of test peptide in growth media. Plates were then incubated aerobically overnight (12 to 18 hrs) at 37°C. Peptide MIC was taken as the lowest concentration able reduce cell growth by CFU and alamar blue assays by at least two-fold and which correlated with the visible loss of a growth button on the bottom of microtiter wells. Experiments were repeated a minimum of three times for each organism, and tests included at least three replicates for each assay condition. Experiments included control serial dilutions of buffer vehicle alone.
as §1
(§6) Microbial growth was determined by following the reduction of the synthetic metabolic substrate resazurin (alamar blue) to a fluorescent product by respiratory enzymes in living cells. Alamar blue assay is used in high throughput screens for antimicrobial agents and is available commercially in kit form from Invitrogen. Microbial growth in experiments was assayed with alamar blue kits according to the manufacturer's instructions. […] Fluorescence signal was measured at excitation of 530 nm and emission at 590 nm.

[3] = test system: Escherichia coli; assay type: cell-based
Description: as §2, §3, §4, §5, §1, §6

[4] = test system: Staphylococcus epidermidis; assay type: cell-based
Description: as §2, §3, §4, §5, §1, §6

[5] = test system: Enterococcus faecalis; assay type: cell-based
Description: as §2, §3, §4, §5, §1, §6

[6] = test system: Streptococcus pneumoniae; assay type: cell-based
Description: as §2, §3, §4, §5, §1, §6

[7] = test system: Staphylococcus aureus; assay type: cell-based
Description: as §2, §3, §4, §5, §1, §6

[8] = test system: Streptococcus mitis; assay type: cell-based
Description: as §2, §3, §4, §5, §1, §6

[9] = test system: Listeria monocytogenes; assay type: cell-based
Description: as §2, §3, §4, §5, §1, §6

[10] = test system: Streptococcus agalactiae; assay type: cell-based
Description: as §2, §3, §4, §5, §1, §6

[11] = test system: Candida albicans; assay type: cell-based
Description: as §2, §3, §4, §5, §1, §6

[12] = test system: Streptococcus pyogenes; assay type: cell-based
Description: as §2, §3, §4, §5, §1, §6

[13] = test system: Streptococcus salivarius; assay type: cell-based
Description: as §2, §3, §4, §5, §1, §6

[14] = clinical trial in AD patients; cited from earlier work
[15] = test system: panel of clinically relevant organisms; test: MIC against panel of clinically relevant organisms, recombinant versus synthetic peptide; assay type: cell-based; conditions: data not shown
Description: Aβ and LL-37 peptides were prepared and purified by Dr. James I. Elliott at Yale University (New Haven, CT) using solid-phase peptide synthesis. Scrambled LL-37 peptide was from AnaSpec (San Jose, CA). […] Findings for recombinant and SPPS prepared peptides were equivalent in all experiments.
as §5

Compound	MIC [2]	MIC [3]	MIC [4]	MIC [5]	MIC [6]	MIC [7]	MIC [8]	MIC [9]	MIC [10]	MIC ([11]; pH 7)	MIC [12]	MIC [13]	further results
CC[C@H](C)[C@H](NC(=O)[C@H](CCCCN)NC(=O)[C@H](CCC(=O)O)NC(=O)[C@H](CCCCN)NC(=O)[C@H](CO)NC(=O)[C@H](CCCCN)NC(=O)[C@H](CCCNC(=N)N)NC(=O)[C@H](Cc1ccccc1)NC(=O)[C@H](Cc1ccccc1)NC(=O)[C@H](CC(=O)O)NC(=O)CNC(=O)[C@H](CC(C)C)NC(=O)[C@@H](N)CC(C)C)C(=O)NCC(=O)N[C@@H](CCCCN)C(=O)N[C@@H](CCC(=O)O)C(=O)N[C@@H](Cc1ccccc1)C(=O)N[C@@H](CCCCN)C(=O)N[C@@H](CCCNC(=N)N)C(=O)N[C@H](C(=O)N[C@H](C(=O)N[C@@H](CCC(N)=O)C(=O)N[C@@H](CCCNC(=N)N)C(=O)N[C@H](C(=O)N[C@@H](CCCCN)C(=O)N[C@@H](CC(=O)O)C(=O)N[C@@H](Cc1ccccc1)C(=O)N[C@@H](CC(C)C)C(=O)N[C@@H](CCCNC(=N)N)C(=O)N[C@@H](CC(N)=O)C(=O)N[C@@H](CC(C)C)C(=O)N[C@H](C(=O)N1CCC[C@H]1C(=O)N[C@@H](CCCNC(=N)N)C(=O)N[C@H](C(=O)N[C@@H](CCC(=O)O)C(=O)N[C@@H](CO)C(=O)O)[C@@H](C)O)C(C)C)[C@@H](C)CC)C(C)C)[C@@H](C)CC [LL-37]	–	–	–	–	–	–	–	–	–	–	–	–	Action on E. faecalis growth (bacteriostatic or bactericidal) [1]: potent bactericidal activity; MIC ([2]; Pseudomonas aeruginosa ATCC 27853, inoculum 5×10^5 cells/ml, mid-logarithmic phase, overnight (12 to 18 hrs) 37°C, visual inspection confirmed by alamar blue and CFU, repeated at least three times): 6.25 mg/L (≈ 1.39 µM); MIC ([3]; Escherichia coli ATCC 25922, inoculum 5×10^5 cells/ml, mid-logarithmic phase, overnight (12 to 18 hrs) 37°C, visual inspection confirmed by alamar blue and CFU, repeated at least three times): 1.56 mg/L (≈ 0.347 µM); MIC ([4]; Staphylococcus epidermidis ATCC 12228, inoculum 5×10^5 cells/ml, mid-logarithmic phase, overnight (12 to 18 hrs) 37°C, visual inspection confirmed by alamar blue and CFU, repeated at least three times): 25 mg/L (≈ 5.56 µM); MIC ([5]; Enterococcus faecalis ATCC 29212, inoculum 5×10^5 cells/ml, mid-logarithmic phase, overnight (12 to 18 hrs) 37°C, visual inspection confirmed by alamar blue and CFU, repeated at least three times): 6.25 mg/L (≈ 1.39 µM); MIC ([6]; Streptococcus pneumoniae ATCC 49619, inoculum 5×10^5 cells/ml, mid-logarithmic phase, overnight (12 to 18 hrs) 37°C, visual inspection confirmed by alamar blue and CFU, repeated at least three times): 1.56 mg/L (≈ 0.347 µM); MIC ([7]; Staphylococcus aureus ATCC 25923, inoculum 5×10^5 cells/ml, mid-logarithmic phase, overnight (12 to 18 hrs) 37°C, visual inspection confirmed by alamar blue and CFU, repeated at least three times): 6.25 mg/L (≈ 1.39 µM); MIC ([8]; Streptococcus mitis ATCC 6249, inoculum 5×10^5 cells/ml, mid-logarithmic phase, overnight (12 to 18 hrs) 37°C, visual inspection confirmed by alamar blue and CFU, repeated at least three times): 6.25 mg/L (≈ 1.39 µM); MIC ([9]; Listeria monocytogenes ATCC 19112, inoculum 5×10^5 cells/ml, mid-logarithmic phase, overnight (12 to 18 hrs) 37°C, visual inspection confirmed by alamar blue and CFU, repeated at least three times): 25 mg/L (≈ 5.56 µM); MIC ([10]; Streptococcus agalactiae ATCC 12386, inoculum 5×10^5 cells/ml, mid-logarithmic phase, overnight (12 to 18 hrs) 37°C, visual inspection confirmed by alamar blue and CFU, repeated at least three times): 12.5 mg/L (≈ 2.78 µM); MIC ([11]; Candida albicans ATCC 10231, RPMI-1640 with 2% glucose, MOPS pH 7.0, inoculum 2.5×10^3 CFU/ml, mid-logarithmic phase, overnight (12 to 18 hrs) 37°C, visual inspection confirmed by alamar blue and CFU, repeated at least three times): 6.25 mg/L (≈ 1.39 µM); MIC ([12]; Streptococcus pyogenes ATCC 19615, inoculum 5×10^5 cells/ml, mid-logarithmic phase, overnight (12 to 18 hrs) 37°C, visual inspection confirmed by alamar blue and CFU, repeated at least three times): 6.25 mg/L (≈ 1.39 µM); MIC ([13]; Streptococcus salivarius ATCC 13419, inoculum 5×10^5 cells/ml, mid-logarithmic phase, overnight (12 to 18 hrs) 37°C, visual inspection confirmed by alamar blue and CFU, repeated at least three times): 50 mg/L (≈ 11.1 µM)
C[C@@H](C(=O)O)c1ccc(-c2ccccc2)c(F)c1 [tarenflurbil]	–	–	–	–	–	–	–	–	–	–	–	–	Rates of infection in patients receiving the drug [14]: significantly increased rates of infection
AIVVGGVMLGIIAGKNSGVDEAFFVLKQHHVEYGSDHRFEAD [reAβ42, Aβ42-1]	>50 mg/L	>50 mg/L	>50 mg/L	50 mg/L	50 mg/L	>50 mg/L	>50 mg/L	>50 mg/L	>50 mg/L	>25 mg/L	>50 mg/L	>50 mg/L	–
DAEFGHDSGFEVRHQKLVFFAEDVGSNKGAIIGLMVGGVVIA [roAβ42]	>50 mg/L	3.13 mg/L	3.13 mg/L	3.13 mg/L	6.25 mg/L	12.5 mg/L	>50 mg/L	6.25 mg/L	>50 mg/L	0.78 mg/L	>50 mg/L	>50 mg/L	–
recombinant Aβ42: Recombinant human Aβ42 purchased from rPeptide	–	–	–	–	–	–	–	–	–	–	–	–	Antimicrobial activity compared with synthetic Aβ42 [15]: Equivalent findings
